Source: PMC7602980 (Biomolecules, 2020)
Values joined by “and” are separate entries in the source; they are usually repeats but may differ in a detail not shown here. Equal values may be shown once.

Experiments:
[1] = target: T1, CaM (Rattus norvegicus, UniProt P0DP29); experiment: NMR titration (15N-HSQC) of 15N-CaM with Cx43CL136-158 peptides; type: binding; details: result in words
T1 construct: made in house; host or cells: pAED4 vector
Experimental: (§4) All polypeptides were equilibrated in 1x phosphate-buffered saline (1x PBS) at pH 5.8 or KCl 100 mM, CaCl2 5 mM at pH 6.5 using NAP-5 columns (GE Healthcare, #17-0853-01, Chicago, MI, USA) by dialysis in Slide-A-Lyzer G2 Dialysis Cassettes, 2K MWCO (Thermo Scientific, #87717, Waltham, MA, USA).
(§5) NMR data were acquired at 7 °C or 25 °C using a 600 MHz Varian INOVA (Agilent Technologies, Santa Clara, CA, USA) or a 600 MHz Bruker Avance-III HD spectrometer (Bruker, Billerica, MA, USA) outfitted with a cryoprobe at the NMR Facility of the University of Nebraska Medical Center. […] NMR spectra were processed using NMRPipe (IBBR, Rockville, MD, USA) [46] and analyzed using NMRView (https://nmrfx.org) [47].
(§6) Data were acquired with 1024 complex points in the direct dimension and 128 complex points in the indirect dimension. Chemical shift variations were calculated according to the formula Δσ = √((ΔδHN)^2 + (ΔδN/5)^2) and plotted as a function of ligand concentration. Dissociation constants (KD) were calculated by nonlinear fitting of the titration curves using GraphPad Prism 7.0 (GraphPad Software, La Jolla, CA, USA) and averaging at least six curves.

[2] = system: Cx43; experiment: Ionomycin treatment and Triton X-100 solubility assay, HeLa^Cx43 cells, Western blot; type: cell-based; details: 100 nM PMA, 1 μM ionomycin, 30 min; insoluble fraction
Excerpt: (§1) Briefly, 80% confluent parental HeLa cells were transfected with Cx43 WT or ODDD mutations containing pD2529 (puromycin resistant) plasmid using Lipofectamine 2000 (Invitrogen, # 11668019) at a 1:1 (reagent:plasmid) ratio in OptiMem (Life Technologies, #31985070, Carlsbad, CA, USA) under antibiotic free conditions. After re-plating and once colonies were formed, Western blot and immunofluorescence were used to screen the clones (α-Cx43, Sigma #6219, 1:10,000, MilliporeSigma, St. Louis, MO, USA).
After reaching 100% confluency, HeLa^Cx43 cells seeded on 10-cm dishes were incubated in presence of 1 μM ionomycin (Sigma #I0634) for 2 min for equilibration and then either treated with 1 μM ionomycin only as control, or 1 μM ionomycin plus 20 mM Ca^2+, 100 nM PMA (Sigma, # P1585), or 20 mM Ca^2+/100 nM PMA and incubated for 30 min.
The Triton X-100 solubility assay was modified from a method described previously. […] Protein lysate content was quantified by the BCA assay and normalized. […] After analysis of the insoluble fraction by Western blot, quantification from three independent replicates was measured using the iBright Analysis Software (version 3.1.3, Thermo Scientific) and statistical analysis was performed in GraphPad Prism 8.0 (San Diego, CA, USA) using the Ordinary one way Anova calculation. p-values < 0.05 were considered statistically significant.

[3] = system: HeLa cells; experiment: Scrape loading dye transfer, stably transfected HeLa cells; type: cell-based; details: cell layers past scrape; 100% confluent HeLa
Excerpt: as §1
Cell communication was evaluated as previously described. Briefly, stably transfected HeLa cells described above were grown to 100% confluency. Media was replaced with pre-warmed dye transfer solution (0.25% Lucifer yellow CH (Life Technologies # L453) and 0.1% Texas Red 1 × 10^4 (Life Tech # D1863) in 1× PBS at 37 °C) and cells were immediately scrape-loaded with a fine edged micro-scalpel by three longitudinal scratches. After incubating at 37 °C for 4 min, cells were rinsed with 1× PBS and further incubated in antibiotic free media for 6 min. Dye spread was then stopped by washing the cells with 1× PBS containing 1 mM CaCl2 and 1 mM MgCl2. Cells were finally fixed, DAPI stained, mounted, and imaged.

[4] = system: HeLa cells; experiment: In situ Triton X-100 extraction and immunofluorescence, stably transfected HeLa cells; type: cell-based; details: 1% Triton X-100 in situ extraction
Excerpt: as §1
After reaching 100% confluency, cells seeded on glass coverslips were fixed in 4% paraformaldehyde (1× PBS, pH 7.4) and then blocked in 5% goat serum (1× TBS, 0.4% Triton X-100). Coverslips were then incubated with the appropriate primary antibody (α-Cx43, Sigma #6219, 1:200) diluted in blocking buffer overnight at 4 °C. Fluorescent secondary antibody (α-Rb Alexa Fluor 488, Cell Signaling #4412, 1:300) was then applied, followed by DAPI (100 ng/mL in 1× TBS). Coverslips were mounted on a drop of SlowFade anti-fade (Life Technologies, Carlsbad, CA, USA # S36972), sealed with clear nail polish, and imaged.
The in situ detergent extraction was previously described. […]

[5] = Circular dichroism (far UV), secondary structure; type: physicochemical; details: for CD structure with TFE: 1× PBS pH 5.8, up to 25% TFE, result in words
Experimental: CD experiments were performed on a JASCO J-815 CD spectrometer at 7 °C in the far UV (260–190 nm) with a 0.1 mm path length quartz cell, using a bandwidth of 1 nm, an integration time of 1 s, and a scan rate of 50 nm/min. Each spectrum is the average of 5 scans. All spectra were corrected by subtracting the solvent spectrum acquired under identical conditions. The protein concentration for each sample was 200–500 μM in 1× PBS at pH 5.8. For CD data collection in presence of TFE, 10× PBS was used to keep the final sample at a constant buffer concentration corresponding to 1x PBS. All CD data were processed using the Spectra Analysis software of Jasco Manager Version 2 (Jasco, Easton, PA, USA).

[6] = pH 5.8; ref [14]; cited from earlier work
Excerpt: (§2) The CT plays a role in the trafficking, localization, and turnover of gap junction channels via numerous post-translational modifications and protein–protein interactions. The CT is also important for regulating junctional conductance and voltage sensitivity. […] Conversely, only a few protein partners have been identified to directly bind the CL. For example, in the ...

[7] = system: Cx43 gap junction channels; details: peptide in patch pipette; ref [15]; cited from earlier work
Excerpt: as §2

[8] = system: Cx43CT domain; details: ref [14]; cited from earlier work
Excerpt: as §2

[9] = system: Cx43CT236-382; experiment: NMR titration (15N-HSQC) of 15N-Cx43CT236-382 with CaM; type: binding, rat; details: Ca^+2 not present, 10 mM EGTA
Experimental: as §4, §5, §6

[10] = system: Src; experiment: In vitro kinase assay, Src phosphorylation of GST-Cx43CT236-382; type: biochemical; details: CaM ~90% saturation of Cx43CT; 4 h RT; Western blot Cx43 pY265; three independent experiments
Experimental: (§3) After incubation of 4 h at RT for Src, 6 h at 30 °C for ERK1, and 6 h at RT for ERK2, phosphorylation levels of the Cx43CT were detected by Western blot using Cx43 specific anti-phospho antibodies. Three independent experiments were performed and phosphorylation levels were quantified using the iBright Analysis Software and statistical analysis were performed in GraphPad Prism 8.0 using a Student’s t-test. p-values < 0.05 were considered statistically significant.

[11] = system: ERK2; experiment: In vitro kinase assay, ERK2 phosphorylation of GST-Cx43CT236-382; type: biochemical; details: CaM ~90% saturation of Cx43CT; 6 h RT; Western blot pS279/S282; three independent experiments
Experimental: as §3

[12] = system: ERK1; experiment: In vitro kinase assay, ERK1 phosphorylation of GST-Cx43CT236-382; type: biochemical; details: CaM ~90% saturation of Cx43CT; 6 h 30 °C; Western blot pS279/S282; three independent experiments; Student's t-test
Experimental: as §3

With CC[C@H](C)[C@H](NC(=O)CNC(=O)[C@H](Cc1ccc(O)cc1)NC(=O)[C@@H](N)CCCCN)C(=O)N[C@@H](CCC(=O)O)C(=O)N[C@@H](CCC(=O)O)C(=O)N[C@@H](Cc1c[nH]cn1)C(=O)NCC(=O)N[C@@H](CCCCN)C(=O)N[C@H](C(=O)N[C@@H](CCCCN)C(=O)N[C@H](C(=O)N[C@@H](CCCNC(=N)N)C(=O)NCC(=O)NCC(=O)N[C@@H](CC(C)C)C(=O)N[C@@H](CC(C)C)C(=O)N[C@@H](CCCNC(=N)N)C(=O)N[C@H](C(=O)N[C@@H](Cc1ccc(O)cc1)C(=O)N[C@H](C(=O)N[C@H](C(=O)N[C@@H](CO)C(=O)O)[C@@H](C)CC)[C@@H](C)CC)[C@@H](C)O)[C@@H](C)O)C(C)C [M147T] the “KD compared with control (WT)” value [1] was “little-to-no difference in KD”.
In the case of CCCCCCCCCCCCCC(=O)O[C@@H]1[C@@H](C)[C@@]2(O)[C@@H](C=C(CO)C[C@]3(O)C(=O)C(C)=C[C@@H]23)[C@@H]2C(C)(C)[C@]12OC(C)=O [PMA], the Y265 phosphorylation [2] is reported as “increasing Y265 phosphorylation” and the “level of total Cx43 at the plaque” value [2] is reported as “decreased the level of total Cx43 at the plaque”.
In the case of CC[C@H](C)[C@H](NC(=O)CNC(=O)[C@H](Cc1ccc(O)cc1)NC(=O)[C@@H](N)CCCCN)C(=O)N[C@@H](CCC(=O)O)C(=O)N[C@@H](CCC(=O)O)C(=O)N[C@@H](Cc1c[nH]cn1)C(=O)NCC(=O)N[C@@H](CCCCN)C(=O)N[C@H](C(=O)N[C@@H](CCCCN)C(=O)N[C@@H](CCSC)C(=O)N[C@@H](CCC(N)=O)C(=O)NCC(=O)NCC(=O)N[C@@H](CC(C)C)C(=O)N[C@@H](CC(C)C)C(=O)N[C@@H](CCCNC(=N)N)C(=O)N[C@H](C(=O)N[C@@H](Cc1ccc(O)cc1)C(=O)N[C@H](C(=O)N[C@H](C(=O)N[C@@H](CO)C(=O)O)[C@@H](C)CC)[C@@H](C)CC)[C@@H](C)O)C(C)C [R148Q], the “KD compared with control (WT)” value [1] is reported as “little-to-no difference in KD”.
With CC[C@H](C)[C@H](NC(=O)CNC(=O)[C@H](Cc1ccc(O)cc1)NC(=O)[C@@H](N)CCCCN)C(=O)N[C@@H](CCC(=O)O)C(=O)N[C@@H](CCC(=O)O)C(=O)N[C@@H](Cc1c[nH]cn1)C(=O)NCC(=O)N[C@@H](CCCCN)C(=O)N[C@H](C(=O)N[C@@H](CCCCN)C(=O)N[C@@H](CCSC)C(=O)N[C@@H](CCCNC(=N)N)C(=O)NCC(=O)NCC(=O)N[C@@H](CC(C)C)C(=O)N[C@@H](CC(C)C)C(=O)N[C@@H](CCCNC(=N)N)C(=O)N[C@@H](C)C(=O)N[C@@H](Cc1ccc(O)cc1)C(=O)N[C@H](C(=O)N[C@H](C(=O)N[C@@H](CO)C(=O)O)[C@@H](C)CC)[C@@H](C)CC)C(C)C [T154A] the “KD compared with control (WT)” value [1] was “little-to-no difference in KD”.
With “Cx43 WT: Cx43 wild type stably expressed in HeLa cells” the “Lucifer Yellow dye transfer” value [3] was “greater than a fifth-order dye transfer” and the “Triton X-100 solubility / localization” value [4] was “only a small amount of Cx43 washed away in the presence of Triton X-100”.
For “Cx43CL100-155: recombinant rat full-length Cx43CL domain, residues M100-Y155 (MRKEEKLNKKEEELKVAQTDGVNVEMHLKQIEIKKFKYGIEEHGKVKMRGGLLRTY; cytoplasmic loop; UniProt P08050 100-155, looked up, fragment)”, the “CD structure with TFE” value [5] was “able to form α-helical structure” and the α-helical content ([5]; 1× PBS, pH 5.8, 7 °C, 200–500 μM, estimated by comparing previous data) was “less than 5%”.
With “Cx43CL100-158: recombinant rat Cx43CL construct, residues M100-S158 (MRKEEKLNKKEEELKVAQTDGVNVEMHLKQIEIKKFKYGIEEHGKVKMRGGLLRTYIIS; cytoplasmic loop; UniProt P08050 100-158, looked up, fragment)” the “CD structure with TFE” value [5] was “did not elicit the same degree of α-helical content as Cx43CL100-155”.
For “Cx43L1: synthetic peptide, Cx43CL residues M100-A116 (MRKEEKLNKKEEELKVA; UniProt P08050 100-116, looked up, fragment)”, the “CD structure with TFE” value [5] was “at 25% of TFE, the spectrum was still typical of a predominantly random coiled protein”.
For “Cx43L2: synthetic peptide, Cx43CL residues D119-K144”, the “CD structure with TFE” value [5] is given as “clearly adopted an α-helical structure”, the secondary structure [6] is given as “two short α-helices” and the “effect on single channel behaviour” value [7] is given as “interfered with the occurrence of the residual state and prolonged open time”. The “affinity for the CT at pH 5.8 compared with pH 7.4” value [8] was “greater than at pH 7.4”.
For calmodulin [CaM], the “interaction of CaM with Cx43CT without Ca^2+” value [9] was “the interaction is lost when Ca^+2 is not present”, the “inhibition of Src phosphorylation of Cx43CT” value [10] was ~ 90% and 90% and the “inhibition of ERK2 phosphorylation of Cx43CT” value [11] was ~ 30% and 30%. For the same molecule, the “effect on ERK1 phosphorylation of Cx43CT” value [12] was “not statistically significant”.
